Drawing on patent publication US7928139B2 (Amgen Inc., priority 2006, dated 2011), this text covers IC50 for 36 compounds.

This assay concerns the target HIF PHD2 (Homo sapiens, UniProt Q9GZT9). Put plainly: PHD2 inhibition assay (TR-FRET, VCB-Eu detection of hydroxylated P564-HIF1α peptide). To be noted: 2 nM PHD2, 100 nM P564-HIF1α peptide, 0.25 μM 2-oxoglutarate, 100 μM FeCl2, 2 mM ascorbic acid. Format: biochemical. A digest of the protocol: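 Human PHD2 (2 nM final) preincubated 1 h at room temperature with compound and 100 μM FeCl2 in pH 6 MES buffer, 5% DMSO final. Reaction with 100 nM biotinylated P564-HIF1α peptide, 2 mM ascorbate and 0.25 μM 2-oxoglutarate for 1 h, stopped with succinate. Hydroxylation read by TR-FRET (VCB-Eu/streptavidin-APC, 655/615 nm); IC50 from 4-parameter fit of percent of control.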

Chain of HIF PHD2 (Q9GZT9 whole entry): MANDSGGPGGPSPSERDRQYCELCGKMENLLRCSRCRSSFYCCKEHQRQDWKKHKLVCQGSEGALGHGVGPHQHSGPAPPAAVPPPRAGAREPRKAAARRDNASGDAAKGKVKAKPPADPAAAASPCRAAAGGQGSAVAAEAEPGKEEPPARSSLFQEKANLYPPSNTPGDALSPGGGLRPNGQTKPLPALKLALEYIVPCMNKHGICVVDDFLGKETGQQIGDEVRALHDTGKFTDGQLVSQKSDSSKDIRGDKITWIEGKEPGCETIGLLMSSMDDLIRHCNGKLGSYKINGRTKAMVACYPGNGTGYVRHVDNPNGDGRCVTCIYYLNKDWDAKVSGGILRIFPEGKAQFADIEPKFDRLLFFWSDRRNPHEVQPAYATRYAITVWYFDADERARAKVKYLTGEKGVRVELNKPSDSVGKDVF

Regarding `CC1(C)C(=O)C(C(=O)NCC(=O)O)=C(O)c2cc(Cl)c(Cl)cc21` [Example 64, N-((6,7-Dichloro-4-hydroxy-1,1-dimethyl-2-oxo-naphthalen-3-yl)carbonyl)glycine], the IC50 is < 0.1 µM.
`CNC(=O)C1=C(O)c2cc(Cl)ccc2C(C)(C)C1=O` [Example 100, 6-Chloro-4-hydroxy-N,1,1-trimethyl-2-oxo-naphthalene-3-carboxamide]: the 50% inhibitory concentration (IC50) was > 10 µM.
For `CC1(C)C(=O)C(C(=O)NCC(=O)O)=C(O)c2cc(Br)ccc21` [Example 40, N-((6-Bromo-4-hydroxy-1,1-dimethyl-2-oxo-naphthalen-3-yl)carbonyl)glycine] the value was < 0.1 µM; for `C[C@@]1(c2ccc(Cl)cc2)C(=O)C(C(=O)NCC(=O)O)=C(O)c2cc(Cl)ccc21` (single isomer, unassigned) [Example 29], 0.1 to 0.5 µM; for `CC1(C)C(=O)C(C(=O)NCC(=O)O)=C(O)c2cc(C#N)ccc21` [Example 42, N-((6-Cyano-4-hydroxy-1,1-dimethyl-2-oxo-naphthalen-3-yl)carbonyl)glycine], < 0.1 µM.
Regarding `O=C(O)CNC(=O)C1=C(O)c2cccc(F)c2C2(CCOCC2)C1=O` [Example 83, N-((8-Fluoro-4-hydroxy-2-oxo-2′,3′,5′,6′-tetrahydro-spiro[naphthalene-1,4′-pyran]-3-yl)carbonyl)glycine], the IC50 was < 0.1 µM.
For `CC1(C)C(=O)C(C(=O)NCC(=O)O)=C(O)c2cccc(F)c21` [Example 27, N-((8-Fluoro-4-hydroxy-1,1-dimethyl-2-oxo-naphthalen-3-yl)carbonyl)glycine] the value was < 0.1 µM; for `O=C(O)CCC(=O)C1=C(O)c2ccc(Cl)cc2C2(CCOCC2)C1=O` [Example 128, 4-(7-chloro-2-hydroxy-4-oxo-2′,3′,5′,6′-tetrahydro-4H-spiro[naphthalene-1,4′-pyran]-3-yl)-4-oxobutanoic acid], < 0.1 µM; for “(R)-2-(7-bromo-1- cyano-4-hydroxy-1- methyl-2-oxo-1,2- dihydronaphthalene- 3-carboxamido) acetic acid or (S)-2-(7-bromo-1- cyano-4-hydroxy-1- methyl-2-oxo-1,2- dihydronaphthalene- 3-carboxamido) acetic acid [Example 134]”, < 0.1 µM.
On to `CSc1ccc2c(c1)C(O)=C(C(=O)NCC(=O)O)C(=O)C2(C)C` [Example 33, N-((4-Hydroxy-1,1-dimethyl-6-(methylthio)-2-oxo-naphthalen-3-yl)carbonyl)glycine], for which the 50% inhibitory concentration (IC50) was < 0.1 µM.
For `CC1(C)C(=O)C(C(N)=O)=C(O)c2cc(Cl)ccc21` [Example 101, 6-Chloro-4-hydroxy-1,1-dimethyl-2-oxo-naphthalene-3-carboxamide], the IC50 is > 10 µM.
Then `COc1ccc2c(c1)C1(CCOCC1)C(=O)C(C(=O)NCC(=O)O)=C2O` [Example 19, N-((4-Hydroxy-7-(methyloxy)-2-oxo-2′,3′,5′,6′-tetrahydro-spiro[naphthalene-1,4′-pyran]-3-yl)carbonyl)glycine], with < 0.1 µM.
Then `O=C(O)CNC(=O)C1=C(O)c2cc(Cl)ccc2C2(CCC(=O)CC2)C1=O` [Example 80, N-((6′-Chloro-4′-hydroxy-2′,4-dioxo-spiro[cyclohexane-1,1′-naphthalen]-3′-yl)carbonyl)glycine], with < 0.1 µM; and `C[C@@]1(C#N)C(=O)C(C(=O)NCC(=O)O)=C(O)c2cc(F)c(F)cc21` (single isomer, unassigned) [Example 142, (R)-2-(1-cyano-6,7-difluoro-4-hydroxy-1-methyl-2-oxo-1,2-dihydronaphthalene-3-carboxamido) acetic acid or (S)-2-(1-cyano-6,7-difluoro-4-hydroxy-1-methyl-2-oxo-1,2-dihydronaphthalene-3-carboxamido) acetic acid], with < 0.1 µM; and `CN(C)c1ccc(-c2ccc3c(c2)C(O)=C(C(=O)NCC(=O)O)C(=O)C3(C)C)cc1` [Example 36, N-((6-(4-(Dimethylamino)phenyl)-4-hydroxy-1,1-dimethyl-2-oxo-naphthalen-3-yl)carbonyl)glycine], with 0.1 to 0.5 µM.
Compound `CC1(C)C(=O)C(C(=O)NCC(=O)O)=C(O)c2ccc(C#Cc3ccccc3)cc21` [Example 110, 2-(2-Hydroxy-1,1-dimethyl-4-oxo-7-(2-phenylethynyl)-1,4-dihydronaphthalene-3-carboxamido)acetic acid] returned an IC50 of 0.1 to 0.5 µM.
Then `O=C(O)CNC(=O)C1=C(O)c2cc(F)c(F)cc2C2(CCOCC2)C1=O` [Example 58, N-((6,7-Difluoro-4-hydroxy-2-oxo-2′,3′,5′,6′-tetrahydro-spiro[naphthalene-1,4′-pyran]-3-yl)carbonyl)glycine], with < 0.1 µM; and `CC1(C)C(=O)C(C(=O)NCC(=O)O)=C(O)c2ccc(F)cc21` [Example 47, N-((7-Fluoro-4-hydroxy-1,1-dimethyl-2-oxo-naphthalen-3-yl)carbonyl)glycine], with < 0.1 µM; and `CC1(C)C(=O)C(C(=O)NCC(=O)O)=C(O)c2ccc(/C=C/c3ccccc3)cc21` [Example 108, (E)-2-(2-Hydroxy-1,1-dimethyl-4-oxo-7-styryl-1,4-dihydronaphthalene-3-carboxamido)acetic acid], with < 0.1 µM.
Take `COc1cccc2c1C(O)=C(C(=O)NCC(=O)O)C(=O)C21CCOCC1` [Example 18, N-((5-Methoxy-4-hydroxy-2-oxo-2′,3′,5′,6′-tetrahydro-spiro[naphthalene-1,4′-pyran]-3-yl)carbonyl)glycine]: the IC50 was < 0.1 µM.
Regarding `O=C(N[C@@H](CO)C(=O)O)C1=C(O)c2cc(Cl)ccc2C2(CCOCC2)C1=O` [Example 95, N-((6-Chloro-4-hydroxy-2-oxo-2′,3′,5′,6′-tetrahydro-spiro[naphthalene-1,4′-pyran]-3-yl)carbonyl)-L-serine], the IC50 lay within 0.1 to 0.5 µM.
On to `O=C(O)CNC(=O)C1=C(O)c2ccccc2C2(CCN(Cc3ccccc3)CC2)C1=O` [Example 69, N-((4-Hydroxy-2-oxo-2′,3′,5′,6′-tetrahydro-N-benzyl-spiro[naphthalene-1,4′-piperidine]-3-yl)carbonyl)glycine], for which the IC50 was < 0.1 µM.
Then `O=C(O)CNC(=O)C1=C(O)c2ccc(F)c(F)c2C2(CCOCC2)C1=O` [Example 113, N-((7,8-Difluoro-2-hydroxy-4-oxo-2′,3′,5′,6′-tetrahydro-4H-spiro[naphthalene-1,4′-pyran]-3-yl)carbonyl)glycine], with < 0.1 µM; and `C[C@@H](NC(=O)C1=C(O)c2cc(Cl)ccc2C2(CCOCC2)C1=O)C(=O)O` [Example 56, N-((6-Chloro-4-hydroxy-2-oxo-2′,3′,5′,6′-tetrahydro-spiro[naphthalene-1,4′-pyran]-3-yl)carbonyl)-D-alanine], with > 10 µM.
Compound `O=C(O)CNC(=O)C1=C(O)c2ccccc2C2(CCNCC2)C1=O` [Example 70, N-((4-Hydroxy-2-oxo-2′,3′,5′,6′-tetrahydro-spiro[naphthalene-1,4′-piperidine]-3-yl)carbonyl)glycine] gave an IC50 of 0.1 to 0.5 µM.
`CC1(C)C(=O)C(C(=O)NCC(=O)O)=C(O)c2c(F)cccc21` [Example 81, N-((5-Fluoro-4-hydroxy-1,1-dimethyl-2-oxo-naphthalen-3-yl)carbonyl)glycine]: the 50% inhibitory concentration (IC50) is < 0.1 µM.
On to `C[C@@]1(C#N)C(=O)C(C(=O)NCC(=O)O)=C(O)c2ccc(F)cc21` (single isomer, unassigned) [Example 137, (R)-2-(1-cyano-7-fluoro-4-hydroxy-1-methyl-2-oxo-1,2-dihydronaphthalene-3-carboxamido) acetic acid or (S)-2-(1-cyano-7-fluoro-4-hydroxy-1-methyl-2-oxo-1,2-dihydronaphthalene-3-carboxamido) acetic acid], for which the half-inhibitory concentration (IC50) is < 0.1 µM.
Then `C[C@]1(C#N)C(=O)C(C(=O)NCC(=O)O)=C(O)c2ccccc21` [Example 88, N-(((1S)-1-Cyano-4-hydroxy-1-methyl-2-oxo-naphthalen-3-yl)carbonyl)glycine], with < 0.1 µM; and `CC1(C)C(=O)C(C(=O)NCC(=O)O)=C(O)c2cc(-c3ccccc3)ccc21` [Example 68, N-((6-Phenyl-4-hydroxy-1,1-dimethyl-2-oxo-naphthalen-3-yl)carbonyl)glycine], with 0.5 to 1 µM; and `O=C(O)CNC(=O)C1=C(O)c2cc(Cl)ccc2C2(CCOC2)C1=O` (stereo not drawn) [Example 12, N-((6′-Chloro-4′-hydroxy-2′-oxo-4,5-dihydro-2′H-spiro[furan-3,1′-naphthalen]-3′-yl)carbonyl)glycine], with < 0.1 µM.
Turning to `CC1(C)C(=O)C(C(=O)NCC(=O)O)=C(O)c2ccc(CCc3ccccc3)cc21` [Example 109, 2-(2-Hydroxy-1,1-dimethyl-4-oxo-7-phenethyl-1,4-dihydronaphthalene-3-carboxamido)acetic acid], the IC50 is < 0.1 µM.
Compound `CC1(C)C(=O)C(C(=O)NCC(=O)O)=C(O)c2cc(-c3ccccc3Cl)ccc21` [Example 37] returned an IC50 of 0.5 to 1 µM.
On to `CC1(C)C(=O)C(C(=O)NCC(=O)O)=C(O)c2cc(Cl)ccc21` [Example 2, N-((6-Chloro-4-hydroxy-1,1-dimethyl-2-oxo-naphthalen-3-yl)carbonyl)glycine], for which the IC50 was < 0.1 µM.
For `CC1(C)C(=O)C(C(=O)NCC(=O)O)=C(O)c2cc(-c3ccc(F)cc3)ccc21` [Example 32, N-((6-(4-Fluorophenyl)-4-hydroxy-1,1-dimethyl-2-oxo-naphthalen-3-yl)carbonyl)glycine] the value was 0.1 to 0.5 µM.
For `C[C@]1(c2ccc(Cl)cc2)C(=O)C(C(=O)NCC(=O)O)=C(O)c2cc(Cl)ccc21` (single isomer, unassigned) [Example 30] the value was 0.5 to 1 µM.
For `CC1(C)C(=O)C(C(=O)NCC(=O)O)=C(O)c2ccc(-c3cccnc3)cc21` [Example 51, N-((7-(3-Pyridyl)-4-hydroxy-1,1-dimethyl-2-oxo-naphthalene-3-yl)carbonyl)glycine] the value was < 0.1 µM.
